Laboratory results reported in patent US11078204B2, “Heterocyclic derivatives as PI3K inhibitors” (Incyte Corporation, priority 2018, dated 2021).
Where a name gives a salt, the structure may show the parent alone.

How the values were obtained:
[1] = biological target: PI3Kγ (p110γ) Recombinant Human Protein (Homo sapiens (Human), UniProt P48736); test: PI3K-γ Scintillation Proximity Assay; format: biochemical; details: 20 μM PIP2, 2 μM ATP, 13 nM PI3Kγ, 120 min
From the text: Example B. PI3K-γ Scintillation Proximity Assay
(§1) [γ-^33P]ATP (10 mCi/mL) and Wheat Germ Agglutinin (WGA) YSi SPA Scintillation Beads was purchased from Perkin Elmer (Waltham, Mass.). Lipid kinase substrate, D-myo-Phosphatidylinositol 4,5-bisphosphate (PtdInS(4,5)P2)D (+)-sn-1,2-di-O-octanoylglyceryl, 3-O-phospho linked (PIP2), CAS 204858-53-7, was purchased from Echelon Biosciences (Salt Lake City, Utah). PI3Kγ (p110γ) Recombinant Human Protein was purchased from Life technology (Grand Island, N.Y.). ATP, MgCl2, DTT, EDTA, MOPS and CHAPS were purchased from Sigma Aldrich (St. Louis, Mo.).
(§2) The kinase reaction was conducted in polystyrene 384-well Greiner Bio-one white plate from Thermo Fisher Scientific in a final volume of 25 μL. Inhibitors were first diluted serially in DMSO and added to the plate wells before the addition of other reaction components. The final concentration of DMSO in the assay was 2%. The PI3Kγ assay was carried out at room temperature in 20 mM MOPS, pH 6.7, 10 mM MgCl2, 5 mM DTT and CHAPS 0.03%. Reactions were initiated by the addition of ATP, the final reaction mixture consisted of 20 μM PIP2, 2 μM ATP, 0.5 μCi [γ-^33p]ATP, 13 nM PI3Kγ. Reactions were incubated for 120 min and terminated by the addition of 40 μL SPA beads suspended in quench buffer: 163 mM potassium phosphate pH 7.8, 20% glycerol, 25 mM EDTA. The final concentration of SPA beads is 1.0 mg/mL. After the plate sealing, plates were shaken overnight at room temperature and centrifuged at 1500 rpm for 10 min, the radioactivity of the product was determined by scintillation counting on Topcount (PerkinElmer). IC50 determination was performed by fitting the curve of percent of the solvent control activity versus the log of the inhibitor concentration using the GraphPad Prism 6.0 software.

[2] = biological target: PI3Kδ (p110δ/p85α) Recombinant Human Protein (Homo sapiens (Human), UniProt O00329); test: PI3Kδ Scintillation Proximity Assay; format: biochemical; details: 20 μM PIP2, 2 μM ATP, 3.4 nM PI3Kδ, 120 min
From the text: Example C. PI3Kδ Scintillation Proximity Assay
as §1, with “PI3Kδ (p110δ/p85α)” for “PI3Kγ (p110γ)”, “Eurofins (St Charles, Mo.).” for “Life technology (Grand Island, N.Y.).”
as §2, with “PI3Kδ” for “PI3Kγ”, “[γ-^33P]ATP, 3.4” for “[γ-^33p]ATP, 13”, “PI3Kδ.” for “PI3Kγ.”

Sequence of PI3Kδ (p110δ/p85α) Recombinant Human Protein (O00329 whole entry): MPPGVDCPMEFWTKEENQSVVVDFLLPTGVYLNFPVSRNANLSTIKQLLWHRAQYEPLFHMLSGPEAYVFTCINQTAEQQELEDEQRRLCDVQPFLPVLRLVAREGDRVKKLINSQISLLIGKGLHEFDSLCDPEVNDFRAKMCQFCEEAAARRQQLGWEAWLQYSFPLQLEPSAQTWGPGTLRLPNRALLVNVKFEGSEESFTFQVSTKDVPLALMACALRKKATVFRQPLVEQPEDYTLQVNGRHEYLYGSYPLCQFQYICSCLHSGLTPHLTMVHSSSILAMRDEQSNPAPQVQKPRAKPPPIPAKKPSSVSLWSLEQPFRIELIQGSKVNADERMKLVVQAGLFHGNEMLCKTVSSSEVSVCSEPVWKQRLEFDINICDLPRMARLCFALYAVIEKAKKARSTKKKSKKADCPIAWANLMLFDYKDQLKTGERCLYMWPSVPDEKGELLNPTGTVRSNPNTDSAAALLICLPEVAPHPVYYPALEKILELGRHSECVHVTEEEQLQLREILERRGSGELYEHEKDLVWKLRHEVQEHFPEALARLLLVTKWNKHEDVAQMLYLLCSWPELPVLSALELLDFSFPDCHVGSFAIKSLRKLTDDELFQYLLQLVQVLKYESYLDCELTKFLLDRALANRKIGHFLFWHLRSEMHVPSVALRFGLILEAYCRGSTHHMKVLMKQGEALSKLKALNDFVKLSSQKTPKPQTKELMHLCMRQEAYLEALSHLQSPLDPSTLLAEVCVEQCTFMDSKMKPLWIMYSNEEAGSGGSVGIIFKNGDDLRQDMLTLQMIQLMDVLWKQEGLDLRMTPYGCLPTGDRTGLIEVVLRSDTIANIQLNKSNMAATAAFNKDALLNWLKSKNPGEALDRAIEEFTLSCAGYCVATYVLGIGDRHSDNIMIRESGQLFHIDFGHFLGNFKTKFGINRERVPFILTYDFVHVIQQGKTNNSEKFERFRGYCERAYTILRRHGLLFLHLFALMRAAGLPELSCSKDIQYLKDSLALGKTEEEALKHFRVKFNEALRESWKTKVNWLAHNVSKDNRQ
Sequence of PI3Kδ (p110δ/p85α) Recombinant Human Protein (P27986 whole entry partner): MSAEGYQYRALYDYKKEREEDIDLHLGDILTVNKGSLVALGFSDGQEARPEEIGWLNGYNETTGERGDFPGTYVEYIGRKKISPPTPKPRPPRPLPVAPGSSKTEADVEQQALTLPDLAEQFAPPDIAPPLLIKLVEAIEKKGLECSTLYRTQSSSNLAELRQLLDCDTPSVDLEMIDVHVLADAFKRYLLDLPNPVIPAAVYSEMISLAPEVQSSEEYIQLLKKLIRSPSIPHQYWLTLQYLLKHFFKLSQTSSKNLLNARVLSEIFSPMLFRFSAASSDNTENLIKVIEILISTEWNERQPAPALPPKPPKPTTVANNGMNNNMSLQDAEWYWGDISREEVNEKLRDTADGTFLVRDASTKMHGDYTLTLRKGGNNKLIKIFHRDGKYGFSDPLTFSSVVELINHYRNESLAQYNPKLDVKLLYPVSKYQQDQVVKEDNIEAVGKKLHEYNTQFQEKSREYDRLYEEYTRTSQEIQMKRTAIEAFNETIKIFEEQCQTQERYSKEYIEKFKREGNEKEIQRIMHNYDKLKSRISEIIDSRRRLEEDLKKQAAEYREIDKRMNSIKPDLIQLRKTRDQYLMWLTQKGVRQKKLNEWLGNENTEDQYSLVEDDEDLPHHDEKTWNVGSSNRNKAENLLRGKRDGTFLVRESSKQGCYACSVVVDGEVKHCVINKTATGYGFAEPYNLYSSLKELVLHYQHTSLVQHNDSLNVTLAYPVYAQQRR
Sequence of PI3Kγ (p110γ) Recombinant Human Protein (P48736 whole entry): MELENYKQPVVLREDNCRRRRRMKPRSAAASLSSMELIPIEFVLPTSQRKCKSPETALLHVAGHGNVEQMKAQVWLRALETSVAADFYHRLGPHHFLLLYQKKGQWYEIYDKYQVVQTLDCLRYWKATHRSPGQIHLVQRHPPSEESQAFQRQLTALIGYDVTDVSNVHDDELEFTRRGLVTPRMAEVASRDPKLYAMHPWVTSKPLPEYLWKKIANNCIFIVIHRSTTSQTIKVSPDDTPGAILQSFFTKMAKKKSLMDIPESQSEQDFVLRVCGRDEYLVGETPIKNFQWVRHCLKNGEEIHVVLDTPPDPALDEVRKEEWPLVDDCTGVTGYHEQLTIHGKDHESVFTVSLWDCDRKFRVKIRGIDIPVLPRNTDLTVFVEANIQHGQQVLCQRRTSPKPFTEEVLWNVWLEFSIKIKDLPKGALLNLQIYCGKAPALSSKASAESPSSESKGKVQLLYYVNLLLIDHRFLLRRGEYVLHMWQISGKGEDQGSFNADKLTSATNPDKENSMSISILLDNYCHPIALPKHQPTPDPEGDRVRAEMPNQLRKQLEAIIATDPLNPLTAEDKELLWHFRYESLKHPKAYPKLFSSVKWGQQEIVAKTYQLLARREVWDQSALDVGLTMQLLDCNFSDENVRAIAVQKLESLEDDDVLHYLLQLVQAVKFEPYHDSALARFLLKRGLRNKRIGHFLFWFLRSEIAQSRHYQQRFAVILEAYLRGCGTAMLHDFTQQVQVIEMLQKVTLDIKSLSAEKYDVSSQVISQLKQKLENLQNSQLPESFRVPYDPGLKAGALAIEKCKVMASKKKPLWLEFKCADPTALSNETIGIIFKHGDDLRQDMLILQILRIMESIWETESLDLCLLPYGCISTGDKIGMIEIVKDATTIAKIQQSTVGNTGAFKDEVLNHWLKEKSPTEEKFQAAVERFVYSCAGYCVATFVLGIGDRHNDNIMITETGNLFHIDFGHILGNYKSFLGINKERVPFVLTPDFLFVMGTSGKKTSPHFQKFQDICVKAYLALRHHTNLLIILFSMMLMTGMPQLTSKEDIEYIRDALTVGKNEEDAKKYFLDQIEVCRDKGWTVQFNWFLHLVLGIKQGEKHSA

| Structure (SMILES) | IC50 [1] [nM] | IC50 [2] [nM] |
| --- | --- | --- |
| CCN1Cc2cc(-c3cnc4c(N)nc(C(F)(F)F)cn34)ccc2C1=O [Example 9, 5-(8-Amino-6-(trifluoromethyl)imidazo[1,2-a]pyrazin-3-yl)-2-ethylisoindolin-1-one trifluoroacetate salt] | ≤ 500 | < 2000 |
| CC(C)c1cc2cc(-c3cnc4c(N)ncnn34)ccn2n1 [Example 23, 7-(2-Isopropylpyrazolo[1,5-a]pyridin-5-yl)imidazo[2,1-f][1,2,4]triazin-4-amine trifluoroacetate salt] | ≤ 500 | ≥ 2000 |
| CC(C)(C)OC(=O)NCC(C1CC1)N1Cc2cc(-c3cnc4c(N)nc(C(F)(F)F)cn34)ccc2C1=O (racemic) [Example 41, tert-Butyl (2-(5-(8-amino-6-(trifluoromethyl)imidazo[1,2-a]pyrazin-3-yl)-1-oxoisoindolin-2-yl)-2-cyclopropylethyl)carbamate] | ≤ 500 | ≥ 2000 |
| CCN1Cc2cc(-c3cnc4c(N)ncnn34)ccc2C1=O [Example 10, 5-(4-Aminoimidazo[2,1-f][1,2,4]triazin-7-yl)-2-ethylisoindolin-1-one trifluoroacetate salt] | ≤ 500 | < 2000 |
| CS(=O)(=O)NCC(C1CC1)N1Cc2cc(-c3cnc4c(N)nc(C(F)(F)F)cn34)ccc2C1=O (racemic) [Example 43, N-(2-(5-(8-Amino-6-(trifluoromethyl)imidazo[1,2-a]pyrazin-3-yl)-1-oxoisoindolin-2-yl)-2-cyclopropylethyl)methanesulfonamide, trifluoroacetate salt] | < 2000 | ≥ 2000 |
| CC(C)c1cn2cc(-c3cnc4c(N)ncnn34)ccc2n1 [Example 22, 7-(2-isopropylimidazo[1,2-a]pyridin-6-yl)imidazo[2,1-f][1,2,4]triazin-4-amine] | ≤ 500 | ≥ 2000 |
| CC(C1CC1)n1nc2ccc(-c3cnc4c(N)ncnn34)cc2n1 (racemic) [Example 20, 7-(2-(1-cyclopropylethyl)-2H-benzo[d][1,2,3]triazol-5-yl)imidazo[2,1-f][1,2,4]triazin-4-amine trifluoroacetate salt] | ≤ 500 | ≥ 2000 |
| CNC(=O)C(C1CC1)N1Cc2cc(-c3cnc4c(N)nc(C(F)(F)F)cn34)ccc2C1=O (racemic) [Example 45, 2-(5-(8-Amino-6-(trifluoromethyl)imidazo[1,2-a]pyrazin-3-yl)-1-oxoisoindolin-2-yl)-2-cyclopropyl-N-methylacetamide, trifluoroacetate salt] | < 2000 | ≥ 2000 |
| CC(C)c1cc2nc(-c3cnc4c(N)ncnn34)ccn2n1 [Example 24, 7-(2-Isopropylpyrazolo[1,5-a]pyrimidin-5-yl)imidazo[2,1-f][1,2,4]triazin-4-amine trifluoroacetate salt] | < 2000 | ≥ 2000 |

Next, values leading:

| IC50 [1] [nM] | IC50 [2] [nM] | Structure (SMILES) |
| --- | --- | --- |
| < 2000 | ≥ 2000 | Nc1nc(C(F)(F)F)cn2c(-c3ccc4c(c3)CN(C(C(=O)O)C3CC3)C4=O)cnc12 (racemic) [Example 47, 2-(5-(8-Amino-6-(trifluoromethyl)imidazo[1,2-a]pyrazin-3-yl)-1-oxoisoindolin-2-yl)-2-cyclopropylacetic acid, trifluoroacetate salt] |
| ≤ 100 | ≥ 2000 | C[C@@H](C1CC1)N1Cc2cc(-c3cnc4c(N)nc(C(=O)N5CC(O)C5)cn34)ccc2C1=O (single isomer, unassigned) [Example 30, trifluoroacetate salt] |
| ≤ 500 | ≥ 2000 | CC(C)c1nc2ccc(-c3cnc4c(N)ncnn34)cn2n1 [Example 21, 7-(2-Isopropyl-[1,2,4]triazolo[1,5-a]pyridin-6-yl)imidazo[2,1-f][1,2,4]triazin-4-amine trifluoroacetate salt] |
| ≤ 100 | ≥ 2000 | CC(c1ccccc1)N1Cc2cc(-c3cnc4c(N)nc(C(F)(F)F)cn34)ccc2C1=O (racemic) [Example 11, 5-(8-Amino-6-(trifluoromethyl)imidazo[1,2-a]pyrazin-3-yl)-2-(1-phenylethyl)isoindolin-1-one 1.4× trifluoroacetate salt] |
| < 2000 | ≥ 2000 | CC(=O)NCC(C1CC1)N1Cc2cc(-c3cnc4c(N)nc(C(F)(F)F)cn34)ccc2C1=O (racemic) [Example 44, N-(2-(5-(8-Amino-6-(trifluoromethyl)imidazo[1,2-a]pyrazin-3-yl)-1-oxoisoindolin-2-yl)-2-cyclopropylethyl)acetamide, trifluoroacetate salt] |
| ≤ 100 | ≥ 2000 | CC(C1CC1)n1cc2cc(-c3cnc4c(N)ncnn34)ncc2n1 (stereo not shown) [Example 26, 7-(2-(1-Cyclopropylethyl)-2H-pyrazolo[3,4-c]pyridin-5-yl)imidazo[2,1-f][1,2,4]triazin-4-amine, trifluoroacetate] |
| ≤ 100 | ≥ 2000 | CC(c1cn2cc(-c3cnc4c(N)ncnn34)ccc2n1)C1CC1 (stereo not shown) [Example 27, 7-(2-(1-Cyclopropylethyl)imidazo[1,2-a]pyridin-6-yl)imidazo[2,1-f][1,2,4]triazin-4-amine trifluoroacetate salt] |
| ≤ 500 | ≥ 2000 | Nc1nc(C(F)(F)F)cn2c(-c3ccc4c(c3)CN(C(CO)C3CC3)C4=O)cnc12 (racemic) [Example 46, 5-(8-Amino-6-(trifluoromethyl)imidazo[1,2-a]pyrazin-3-yl)-2-(1-cyclopropyl-2-hydroxyethyl)isoindolin-1-one, trifluoroacetate salt] |
| < 2000 | ≥ 2000 | NCC(C1CC1)N1Cc2cc(-c3cnc4c(N)nc(C(F)(F)F)cn34)ccc2C1=O (racemic) [Example 42, 2-(2-Amino-1-cyclopropylethyl)-5-(8-amino-6-(trifluoromethyl)imidazo[1,2-a]pyrazin-3-yl)isoindolin-1-one, trifluoroacetate salt] |
| ≤ 500 | ≥ 2000 | Cc1cc(-c2cnc3c(N)ncnn23)cc2cnn(C(C)C3CC3)c12 (stereo not shown) [Example 19, 7-(1-(1-Cyclopropylethyl)-7-methyl-1H-indazol-5-yl)imidazo[2,1-f][1,2,4]triazin-4-amine trifluoroacetate salt] |
| < 2000 | < 2000 | Nc1nc(C(F)(F)F)cn2c(-c3ccc4c(c3)CNC4=O)cnc12 [Example 4, 5-(8-Amino-6-(trifluoromethyl)imidazo[1,2-a]pyrazin-3-yl)isoindolin-1-one trifluoroacetate salt] |
